The source of these data is ChEMBL document CHEMBL5620416, “Design, synthesis and development of a dual inhibitor of Topoisomerase 1 and poly (ADP-ribose) polymerase 1 for efficient killing of cancer cells” (Eur J Med Chem, 2023).

The subject of assay [1] is MIA PaCa-2. In words: Cytotoxicity against human MIA PaCa-2 cells incubated for 72 hrs by MTT assay. In kind it is functional, cell-based. The following applies: MIA PaCa-2, 72 h.
For assay [2], the system named is MIA PaCa-2. In words: Cytotoxicity against human MIA PaCa-2 cells at greater than 10 uM incubated for 7 to 10 days by crystal violet staining based assay. Type of assay: functional, cell-based. The following applies: time 7-10 day.
Assay [3] concerns PANC-1. In words: Cytotoxicity against human PANC-1 cells at greater than 10 uM incubated for 7 to 10 days by crystal violet staining based assay. In kind it is functional, cell-based. The following applies: time 7-10 day.
The test system of assay [4] is PANC-1. In words: Cytotoxicity against human PANC-1 cells incubated for 72 hrs by MTT assay. Type of assay: functional, cell-based. The following applies: PANC-1, 72 h. (Tetrazolium dyes change colour on reduction, which living cells bring about.)
The test system of assay [5] is HCT-116. In words: Cytotoxicity against human HCT-116 cells incubated for 72 hrs by MTT assay. In kind it is functional, cell-based. The following applies: HCT-116, 72 h.
Assay [6] concerns HCT-116. In words: Cytotoxicity against human HCT-116 cells at greater than 10 uM incubated for 7 to 10 days by crystal violet staining based assay. In kind it is functional, cell-based. The following applies: time 7-10 day.
The subject of assay [7] is PANC-1. In words: Cytotoxicity against human PANC-1 cells at less than 10 uM incubated for 7 to 10 days by crystal violet staining based assay. The following applies: time 7-10 day. In kind it is functional, cell-based.
For assay [8], the system named is MIA PaCa-2. In words: Cytotoxicity against human MIA PaCa-2 cells at less than 10 uM incubated for 7 to 10 days by crystal violet staining based assay. In kind it is functional, cell-based. Conditions: time 7-10 day.
The subject of assay [9] is HCT-116. In words: Cytotoxicity against human HCT-116 cells at less than 10 uM incubated for 7 to 10 days by crystal violet staining based assay. Type of assay: functional, cell-based. The following applies: time 7-10 day.
The test system of assay [10] is HCT-116. In words: Induction of PARylation in human HCT-116 cells at 20 uM incubated for 2 to 8 hrs by Western blotting analysis. In kind it is functional, cell-based. The following applies: time 2-8 hrs. A general note: In western blotting, separated proteins are transferred to a membrane and probed.
The next assay relates to Calf thymus DNA. In words: Binding affinity to calf thymus pUC19 DNA assessed as intercalating activity by measuring conformational change in DNA at 50 to 100 uM incubated for 30 mins by EtBr staining based agarose gel electrophoresis. In kind it is nucleic-acid assay. Conditions: Bos taurus, dose 50-100 µM.
The subject of assay [11] is DNA topoisomerase 1/Deoxyribonucleic acid (Homo sapiens). In words: Induction of TOP1-DNA covalent complex stabilization in human HCT-116 cells at 10 to 20 uM after 4 to 6 hrs by RADAR assay. Type of assay: cell-based. Conditions: dose 10-20 µM, time 4-6 hrs.
Assay [12] has the same test system. In words: Induction of TOP1-DNA covalent complex degradation in human HCT-116 cells at 1 uM by RADAR assay. Type of assay: cell-based. The following applies: time 2-24 hrs, TDE = time-dependent effect.
Assay [13] concerns HCT-116. In words: Induction of TOP1-DNA covalent complex PARlyation in human HCT-116 cells at 1 uM measured upto 24 hrs by RADAR assay. In kind it is functional, cell-based.
The subject of assay [14] is DNA topoisomerase 1/Deoxyribonucleic acid (Homo sapiens). In words: Induction of TOP1-DNA covalent complex stabilization in human HCT-116 cells at 10 to 20 uM after 2 hrs by RADAR assay. Type of assay: cell-based. The following applies: dose 10-20 µM.

pIC50: −log10 of the molar value. Active and inactive are the calls of the source. The calls are words filed in the database; no cut-off is given here. Some results are limits rather than exact numbers.

As for `COc1ccc(Cc2nn(CCc3nnc(SCCN4C(=O)c5cccc6cccc(c56)C4=O)o3)c(=O)c3ccccc23)cc1`, the pIC50 with MIA PaCa-2 [1], in the assay on PANC-1 [4] and in the assay on HCT-116 [5] was < 4.60 throughout. The result with MIA PaCa-2 [2], with PANC-1 [3] and in the assay on HCT-116 [6] was Active.
For `COc1ccc(Cc2nn(CCCc3nnc(SCCN4C(=O)c5cccc6cccc(c56)C4=O)o3)c(=O)c3ccccc23)cc1`, the pIC50 in the assay with MIA PaCa-2 [1], with PANC-1 [4] and with HCT-116 [5] was < 4.60 each time. The outcome with MIA PaCa-2 [2], with PANC-1 [3] and in the assay on HCT-116 [6] was Active.
With `O=C1c2cccc3cccc(c23)C(=O)N1CCSc1nnc(CCCn2nc(Cc3ccccc3)c3ccccc3c2=O)o1`, the pIC50 in the assay on MIA PaCa-2 [1], with PANC-1 [4] and in the assay with HCT-116 [5] was < 4.60 each time. The outcome with MIA PaCa-2 [2], in the assay with PANC-1 [3] and with HCT-116 [6] was Active.
With `COc1ccc(Cc2nn(Cc3nnc(SCCN4C(=O)c5cccc6cccc(c56)C4=O)o3)c(=O)c3ccccc23)cc1`, the result with PANC-1 [7], with MIA PaCa-2 [8] and in the assay with HCT-116 [9] was Active. The pIC50 – broadly, the negative decadic logarithm of the IC50, by convention in mol/L – in the assay with MIA PaCa-2 [1] was 4.85; with PANC-1 [4], 4.89; with HCT-116 [5], 4.87.
As for `O=C1c2cccc3cccc(c23)C(=O)N1CCSc1nnc(CCn2nc(Cc3ccccc3)c3ccccc3c2=O)o1`, the pIC50 with MIA PaCa-2 [1], in the assay with PANC-1 [4] and with HCT-116 [5] was < 4.60 throughout.
Turning to `O=C(c1cc(Cc2n[nH]c(=O)c3ccccc23)ccc1F)N1CCN(C(=O)C2CC2)CC1` [OLAPARIB], the pIC50 with MIA PaCa-2 [1] was 5.10; with PANC-1 [4], 5.15; with HCT-116 [5] it was 5.05. For the same compound, the outcome with HCT-116 [10] was inactive.
As to `COc1cccc2c1C(=O)c1c(O)c3c(c(O)c1C2=O)C[C@@](O)(C(=O)CO)C[C@@H]3O[C@H]1C[C@H](N)[C@H](O)[C@H](C)O1`, the result in the assay on Calf thymus DNA was Active.
As to `O=C1c2cccc3cccc(c23)C(=O)N1CCSc1nnc(CCCn2nc(Cc3ccc(F)cc3)c3ccccc3c2=O)o1`, the pIC50 in the assay with MIA PaCa-2 [1], in the assay on PANC-1 [4] and in the assay on HCT-116 [5] was < 4.60 in each case. Moreover, the result in the assay on MIA PaCa-2 [2], in the assay on PANC-1 [3] and with HCT-116 [6] was Active.
`CN(C)c1ccc2cc3ccc(N(C)C)cc3nc2c1`: in the assay with Calf thymus DNA, the outcome was Active.
Take `O=C1NC(=O)c2cccc3cccc1c23`: the pIC50 in the assay with MIA PaCa-2 [1] was 4.74; in the assay on PANC-1 [4] it was 4.70; in the assay with HCT-116 [5], 4.82.
In the case of `CC[C@@]1(O)C(=O)OCc2c1cc1n(c2=O)Cc2cc3ccccc3nc2-1`, the result in assay [11] was inactive. Further, the Activity entry in assay [12] is “Tde”. Moreover, the result (in the assay on HCT-116 [13]; in [14]) was Active.
On to `O=C1c2cccc3cccc(c23)C(=O)N1CCCc1nnc(CCn2nc(Cc3ccc(F)cc3)c3ccccc3c2=O)o1`, for which the pIC50 in the assay on MIA PaCa-2 [1], in the assay with PANC-1 [4] and with HCT-116 [5] was < 4.60 each time. Moreover, the outcome in the assay on MIA PaCa-2 [2], with PANC-1 [3] and in the assay on HCT-116 [6] was Active.
As for `O=C1c2cccc3cccc(c23)C(=O)N1CCCc1nnc(Cn2nc(Cc3ccc(F)cc3)c3ccccc3c2=O)o1`, the pIC50 with MIA PaCa-2 [1], in the assay on PANC-1 [4] and in the assay on HCT-116 [5] was < 4.60 throughout. For the same compound, the outcome in the assay on MIA PaCa-2 [2], in the assay on PANC-1 [3] and in the assay with HCT-116 [6] was Active.
Regarding `O=C1c2cccc3cccc(c23)C(=O)N1CCSc1nnc(Cn2nc(Cc3ccccc3)c3ccccc3c2=O)o1`, the pIC50 in the assay with MIA PaCa-2 [1], in the assay on PANC-1 [4] and with HCT-116 [5] was < 4.60 in each case. The result with MIA PaCa-2 [2], in the assay with PANC-1 [3] and with HCT-116 [6] was Active.
For the compound `O=C1c2cccc3cccc(c23)C(=O)N1CCSc1nnc(CCn2nc(Cc3ccc(F)cc3)c3ccccc3c2=O)o1`, the result in the assay on PANC-1 [7], in the assay with MIA PaCa-2 [8] and in the assay on HCT-116 [9] was Active. Besides, the pIC50 is 4.96 with MIA PaCa-2 [1], 4.89 with PANC-1 [4] and 4.90 with HCT-116 [5].
